Source: US20220281848A1, “PYRAZOLE-SUBSTITUTED PYRROLIDINONES AS HERBICIDES” (FMC Corporation, priority 2019, published 2022)

Experiments:
Assay type in all cases: in vivo
Details in all cases: 19 to 21 days
[1] = test system: large (Lg) crabgrass (Digitaria sanguinalis); assay: Test C preemergence, large crabgrass
From the text: (§1) Seeds of plant species selected from corn (Zea mays), soybean (Glycine max), velvetleaf (Abutilon theophrasti), palmer pigweed (Amaranthus palmeri), waterhemp (common waterhemp, Amaranthus rudis), surinam grass (Brachiaria decumbens), large (Lg) crabgrass (Digitaria sanguinalis), fall panicum (Panicum dichotomiflorum), giant foxtail (Setaria faberi), ragweed (common ragweed, Ambrosia elatior), barnyardgrass (Echinochloa crus-galli), E. Black Nightshade (Solanum ptycanthum), and horseweed (Conyza canadensis), were planted into a silt loam soil and treated preemergence with test chemicals formulated in a non-phytotoxic solvent mixture which included a surfactant.
(§2) Treated plants and controls were maintained in a greenhouse for 19 to 21 days, after which time all species were compared to controls and visually evaluated. Plant response ratings, summarized in Table C, are based on a scale of 0 to 100 where 0 is no effect and 100 is complete control.

[2] = test system: blackgrass (Alopecurus myosuroides); assay: Test B preemergence, blackgrass
From the text: (§3) Seeds of plant species selected from blackgrass (Alopecurus myosuroides), Italian ryegrass (Lolium multiflorum), wheat, winter (winter wheat, Triticum aestivum), corn (Zea mays), large (Lg) crabgrass (Digitaria sanguinalis), giant foxtail (Setaria faberi), johnsongrass (Sorghum halepense), ragweed (common ragweed, Ambrosia elatior), soybean (Glycine max), barnyardgrass (Echinochloa crus-galli), waterhemp (common waterhemp, Amaranthus rudis), palmer pigweed (Amaranthus palmeri), and surinam grass (Brachiaria decumbens), were planted into a silt loam soil and treated preemergence with test chemicals formulated in a non-phytotoxic solvent mixture which included a surfactant.
(§4) Treated plants and controls were maintained in a greenhouse for 19 to 21 days, after which time all species were compared to controls and visually evaluated. Plant response ratings, summarized in Table B, are based on a scale of 0 to 100 where 0 is no effect and 100 is complete control.

corn (Zea mays) = assay: Test B preemergence, corn
From the text: as §3, §4

[3] = test system: waterhemp (common waterhemp, Amaranthus rudis); assay: Test B preemergence, waterhemp
From the text: as §3, §4

[4] = test system: palmer pigweed (Amaranthus palmeri); assay: Test B preemergence, palmer pigweed
From the text: as §3, §4

[5] = test system: surinam grass (Brachiaria decumbens); assay: Test C preemergence, surinam grass
From the text: as §1, §2

[6] = test system: E. Black Nightshade (Solanum ptycanthum); assay: Test C preemergence, E. Black Nightshade
From the text: as §1, §2

[7] = test system: large (Lg) crabgrass (Digitaria sanguinalis); assay: Test B preemergence, large crabgrass
From the text: as §3, §4

[8] = test system: palmer pigweed (Amaranthus palmeri); assay: Test C preemergence, palmer pigweed
From the text: as §1, §2

[9] = test system: wheat, winter (winter wheat, Triticum aestivum); assay: Test B preemergence, wheat, winter
From the text: as §3, §4

CN1C[C@H](c2cc(C(F)(F)F)n(C)n2)[C@@H](C(=O)Nc2cccc(F)c2F)C1=O [Compound 13, (3S,4R)—N-(2,3-difluorophenyl)-1-methyl-4-[1-methyl-5-(trifluoromethyl)-1H-pyrazol-3-yl]-2-oxo-3-pyrrolidinecarboxamide]
Plant response rating (0 no effect, 100 complete control) Crabgrass, Large ([1]; 4 g ai/ha Preemergence): 70 | Plant response rating (0 no effect, 100 complete control) Crabgrass, Large ([1]; 8 g ai/ha Preemergence): 89 | Plant response rating (0 no effect, 100 complete control) Crabgrass, Large ([1]; 16 g ai/ha Preemergence): 98 | Plant response rating (0 no effect, 100 complete control) Crabgrass, Large ([1]; 31 g ai/ha Preemergence): 98 | Plant response rating (0 no effect, 100 complete control) Crabgrass, Large ([1]; 62 g ai/ha Preemergence): 98 | Plant response rating (0 no effect, 100 complete control) Crabgrass, Large ([1]; 125 g ai/ha Preemergence): 98 | Plant response rating (0 no effect, 100 complete control) Blackgrass ([2]; 16 g ai/ha Preemergence): 0 | Plant response rating (0 no effect, 100 complete control) Blackgrass ([2]; 31 g ai/ha Preemergence): 0 | Plant response rating (0 no effect, 100 complete control) Blackgrass ([2]; 62 g ai/ha Preemergence): 13 | Plant response rating (0 no effect, 100 complete control) Blackgrass ([2]; 125 g ai/ha Preemergence): 18 | Plant response rating (0 no effect, 100 complete control) Corn (corn (Zea mays); 16 g ai/ha Preemergence): 3 | Plant response rating (0 no effect, 100 complete control) Corn (corn (Zea mays); 31 g ai/ha Preemergence): 5 | Plant response rating (0 no effect, 100 complete control) Corn (corn (Zea mays); 62 g ai/ha Preemergence): 13 | Plant response rating (0 no effect, 100 complete control) Corn (corn (Zea mays); 125 g ai/ha Preemergence): 48 | Plant response rating (0 no effect, 100 complete control) Waterhemp ([3]; 16 g ai/ha Preemergence): 0 | Plant response rating (0 no effect, 100 complete control) Waterhemp ([3]; 31 g ai/ha Preemergence): 0 | Plant response rating (0 no effect, 100 complete control) Waterhemp ([3]; 62 g ai/ha Preemergence): 0 | Plant response rating (0 no effect, 100 complete control) Waterhemp ([3]; 125 g ai/ha Preemergence): 15 | Plant response rating (0 no effect, 100 complete control) Pigweed, Palmer ([4]; 16 g ai/ha Preemergence): 0 | Plant response rating (0 no effect, 100 complete control) Pigweed, Palmer ([4]; 31 g ai/ha Preemergence): 0 | Plant response rating (0 no effect, 100 complete control) Pigweed, Palmer ([4]; 62 g ai/ha Preemergence): 0 | Plant response rating (0 no effect, 100 complete control) Pigweed, Palmer ([4]; 125 g ai/ha Preemergence): 0 | Plant response rating (0 no effect, 100 complete control) Surinam Grass ([5]; 4 g ai/ha Preemergence): 30 | Plant response rating (0 no effect, 100 complete control) Surinam Grass ([5]; 8 g ai/ha Preemergence): 30 | Plant response rating (0 no effect, 100 complete control) Surinam Grass ([5]; 16 g ai/ha Preemergence): 58 | Plant response rating (0 no effect, 100 complete control) Surinam Grass ([5]; 31 g ai/ha Preemergence): 90 | Plant response rating (0 no effect, 100 complete control) Surinam Grass ([5]; 62 g ai/ha Preemergence): 89 | Plant response rating (0 no effect, 100 complete control) Surinam Grass ([5]; 125 g ai/ha Preemergence): 99 | Plant response rating (0 no effect, 100 complete control) Nightshade ([6]; 4 g ai/ha Preemergence): 0 | Plant response rating (0 no effect, 100 complete control) Nightshade ([6]; 8 g ai/ha Preemergence): 0 | Plant response rating (0 no effect, 100 complete control) Nightshade ([6]; 16 g ai/ha Preemergence): 0 | Plant response rating (0 no effect, 100 complete control) Nightshade ([6]; 31 g ai/ha Preemergence): 0 | Plant response rating (0 no effect, 100 complete control) Nightshade ([6]; 62 g ai/ha Preemergence): 0 | Plant response rating (0 no effect, 100 complete control) Nightshade ([6]; 125 g ai/ha Preemergence): 63 | Plant response rating (0 no effect, 100 complete control) Crabgrass, Large ([7]; 16 g ai/ha Preemergence): 100 | Plant response rating (0 no effect, 100 complete control) Crabgrass, Large ([7]; 31 g ai/ha Preemergence): 100 | Plant response rating (0 no effect, 100 complete control) Crabgrass, Large ([7]; 62 g ai/ha Preemergence): 100 | Plant response rating (0 no effect, 100 complete control) Crabgrass, Large ([7]; 125 g ai/ha Preemergence): 100 | Plant response rating (0 no effect, 100 complete control) Pigweed, Palmer ([8]; 4 g ai/ha Preemergence): 0 | Plant response rating (0 no effect, 100 complete control) Pigweed, Palmer ([8]; 8 g ai/ha Preemergence): 0 | Plant response rating (0 no effect, 100 complete control) Pigweed, Palmer ([8]; 16 g ai/ha Preemergence): 0 | Plant response rating (0 no effect, 100 complete control) Pigweed, Palmer ([8]; 31 g ai/ha Preemergence): 0 | Plant response rating (0 no effect, 100 complete control) Pigweed, Palmer ([8]; 62 g ai/ha Preemergence): 0 | Plant response rating (0 no effect, 100 complete control) Pigweed, Palmer ([8]; 125 g ai/ha Preemergence): 28 | Plant response rating (0 no effect, 100 complete control) Wheat ([9]; 16 g ai/ha Preemergence): 3 | Plant response rating (0 no effect, 100 complete control) Wheat ([9]; 31 g ai/ha Preemergence): 20 | Plant response rating (0 no effect, 100 complete control) Wheat ([9]; 62 g ai/ha Preemergence): 40 | Plant response rating (0 no effect, 100 complete control) Wheat ([9]; 125 g ai/ha Preemergence): 63
